According to patent publication US20060089318A1, “Inhibitors of adp-ribosyl transferases, cyclases, and hydrolases” (priority 2002, published 2006):
Where two headings read alike, the source gives them in different places. Each block holds one molecule with its values, some of them ahead of it.

Tests used:
human CD38 [1] = target: T1, human CD38 (Homo sapiens, UniProt P28907); experiment: Competitive and slow-onset inhibition of CD38-catalyzed conversion of NGD+ to cGDPR (295 nm absorbance); type: biochemical; parameters: The soluble domain of human CD38 catalyzes the conversion of NAD^+ to cyclic-ADP-ribose; conditions: for Inhibition of CD38 conversion of NGD+ to cGDPR: even at millimolar concentrations of compound; for Ki: 19° C.
T1 sequence (P28907 43-300 limits assumed): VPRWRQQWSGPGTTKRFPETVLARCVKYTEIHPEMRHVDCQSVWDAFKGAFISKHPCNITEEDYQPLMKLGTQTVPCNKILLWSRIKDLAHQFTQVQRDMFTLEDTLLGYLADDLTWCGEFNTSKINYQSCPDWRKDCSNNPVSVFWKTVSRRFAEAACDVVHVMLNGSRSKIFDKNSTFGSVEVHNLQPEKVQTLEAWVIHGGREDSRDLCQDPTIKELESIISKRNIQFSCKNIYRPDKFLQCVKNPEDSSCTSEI
Protocol: Determination of Ki and kon by competitive method. To 1 mL solutions of 50 mM potassium phosphate pH 7.2 and 100 μM NGD^+ containing, 50, 25, 12.5, and 6.25 and 0 μM inhibitor 1 was added 2 μL of 7 μM CD38. Reaction progress upon initiation by enzyme addition was monitored by measurement of […] absorbance. The initial slopes were used to determine the Ki value, and all points of the experiment were fit to the equation A(t)=vt+(b−v)(1−exp(−kt))/k+A0 where k is the observed rate constant, b is the initial rate, v is the final rate and A0 is the initial absorbance was used to evaluate kon.
Determination of Competitive Inhibition by Initial Rates: The inhibitors 1-3 were evaluated for inhibition of CD38 enzymatic activity using a spectrophotometric assay. CD38 catalyzes the conversion of NGD^+ to cyclic-GDP ribose (cGDPR, Scheme 4) and product formation can be monitored by 295 nm absorbance measurement. […] A similar reaction containing 40 μM NGD^+ at several concentrations of 2 was also performed (FIG. 3).
Slow Phase Inhibition. […] This slow phase was not due to substrate depletion and was attributable to a kinetic process leading to progressive inhibition of the enzyme. The “slow-onset” absorbance curves could be fit using the equation At=vit+(vi−vf)(1−exp(−kt))/k+A0 where At is absorbance, vi is initial velocity, vf is final velocity, t is time in s, k is the rate of the slow onset process and A0 is absorbance of the sample at initial time. These fits are shown by the solid lines in FIG. 2 and FIG. 3. The rate constant for the slow phase could be obtained from the average value of k determined from the separate fits. The value of k for 1 was determined to be 0.0042±0.001 s^−1 and the value of k for 2 was determined to be 0.0083±0.002 s^−1. The parameter k is defined as kon in Scheme 5. [drawing 22]
Calculation of Total Inhibition. […] This equation is valid for slow onset behavior inhibitors and also mechanistic based inactivators of enzymes where a slow recovery of the enzyme from chemical inactivation is present.

CD38 [2] = target: T2, CD38 (Homo sapiens, UniProt P28907); conditions: comparison values for substrates; read-out: Km of substrate for CD38; cited from earlier work
T2 sequence (P28907 45-300 limits assumed): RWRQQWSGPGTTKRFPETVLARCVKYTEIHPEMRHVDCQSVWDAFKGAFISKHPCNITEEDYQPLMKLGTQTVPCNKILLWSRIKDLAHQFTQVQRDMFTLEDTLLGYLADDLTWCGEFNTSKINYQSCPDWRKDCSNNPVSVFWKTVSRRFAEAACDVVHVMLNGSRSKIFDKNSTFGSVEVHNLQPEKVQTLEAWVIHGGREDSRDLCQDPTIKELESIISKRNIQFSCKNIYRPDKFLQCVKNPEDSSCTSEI

human CD38 [3] = target: T1, human CD38; experiment: Radiochemical measurement of inhibitor binding (labeling of CD38 by [2'-3H] inhibitor, gel filtration and scintillation counting); parameters: The soluble domain of human CD38 catalyzes the conversion of NAD^+ to cyclic-ADP-ribose; conditions: 25° C.; 9 μM inhibitor, 1.2 μM CD38 monomer
Protocol: Radiochemical measurement of inhibitor binding. […] Inhibitor at 9 μM with specific radioactivity of 866 cpm/nmol, was incubated with 1.2 μM CD38 (monomer) in 1 mL 50 mM potassium phosphate (pH 7.5). The reactions were started by enzyme addition and quenched by freezing with a dry ice/acetone bath at 30, 60 90, 120, 250, 500, and 1000 s. Cooled (0° C.) gel filtration columns were used to separate protein with cooled (0° C.) 10 mM potassium phosphate as eluant. The frozen fraction were quickly thawed, applied to these columns and fractions collected in 1 mL volumes over the course of several minutes. Scintillation fluid (9 mL) was then added to each 1 mL fraction and samples counted. […] The observed radioactivity was fit using the equation A(t)=A0(1−exp(−kt))+B. where A0 is activity at reaction completion, k is the observed pseudo-first order rate constant and B is the activity of the blank.
Titration of Enzyme with [2′-^3H]Inhibitor. CD38 inactivation was accomplished using a radiolabeled inhibitor to assess inhibitor interactions with the enzyme independent from inhibition of the catalytic activity. This method allows the determination of the stoichiometry of covalent labeling, and detects cooperativity at multiple sites. […] (FIG. 8) within reasonable agreement with the rate constant for inactivation in kinetic assays of inhibition (kon=0.0042 s^−1 at 19° C.). […]

CD38 [4] = conditions: literature values (Sauve et al., 2000; Muller-Steffner et al., 1992); cited from earlier work
human CD38 [5] = target: T1, human CD38; experiment: Off-rate measurement: recovery of inhibited CD38 in excess NGD+; type: biochemical; parameters: The soluble domain of human CD38 catalyzes the conversion of NAD^+ to cyclic-ADP-ribose; conditions: 19° C.
Protocol: Off-Rate Measurement. 500 nM CD38 in 50 mM potassium phosphate pH 7.2 was incubated with 15 μM inhibitor for 30 min at room temperature. 5 μL of the enzyme inhibitor solution was added to a cuvette containing 1 mL reaction of 50 mM potassium phosphate pH 7.5 containing 300 μM NGD^+ pre-chilled to 19° C. Production of […] was determined by monitoring […] absorbance. The absorbance was fit to the equation A(t)=vt+(b−v) (1−exp(−kt))k+A0 where A(t) is the absorbance, k is the rate constant of recovery, b is the initial rate, v is the final rate and A0 is the initial absorbance. A control lacking inhibitor but in all other respects identical was also run.
Recovery from Inhibition. […] The solution 295 nm absorbance is monitored spectrophotometrically to assay conversion of NGD^+ to cGDPR as a consequence of regain of CD38 catlytic activity. […] The absorbance curves with the same equation used for slow-onset: At=vit+(vi−vf)(1−exp(−kt))/k+A0 where At is absorbance, vi is initial velocity, vf is final velocity, t is time in s, k is the rate of the recovery rate constant and A0 is the absorbance of the sample at initial time. The rate constant for the recovery phase was obtained from the average value of k determined from the separate fits. The value of koff for 1 was determined to be 1.5×10^−5 s^−1 and for 2 was determined to be 2.5×10^−5 s^−1.

[6] = Solution hydrolysis (chemical stability); type: physicochemical
Description: Without being bound to any particular mechanism, it is believed that the electron-contributing moiety on A stabilizes the compounds of the invention such that they are less susceptible to hydrolysis from the rest of the compound. For example, the compound β-1′-5-methyl-nicotinamide-2′-deoxyribose (established as an effective inhibitor of CD38 in Example 1) was compared with β-1′-nicotinamide-2′-deoxyribose in its ability to resist solution hydrolysis. […] This difference in chemical stability means that β-1′-nicotinamide-2′-deoxyribose is 50% depleted from solution in 2 hours, whereas β-1′-5-methyl-nicotinamide-2′-deoxyribose is not hydrolyzed by 50% until 12 hours. This improved chemical stability improves the value of the compound, since it is available for action for longer periods of time in biological systems due to resistance to hydrolytic breakdown.

human CD38 [7] = target: T1, human CD38; experiment: CD38-catalyzed base-exchange reaction of 2 with nicotinamide to form 1 (HPLC); type: biochemical; parameters: The soluble domain of human CD38 catalyzes the conversion of NAD^+ to cyclic-ADP-ribose
Protocol: Base-exchange reaction. […] These reactions were run separately in autosampler tubes held at 19° C. in a temperature regulated autosampler and assayed by multiinjection HPLC using 5 mM K2PO4H pH 5.0 and 2.5% MeOH as eluant. The quantity of 2 reacted and the quantity of 1 formed versus time was determined by integrations of the peaks for 1 and 2 with comparison to standards.

CD38 [8] = target: T2, CD38; conditions: read-out: Apparent Km for nicotinamide rescue; CD38 inactivated by ara-F-NMN+; cited from earlier work
human CD38 [9] = target: T1, human CD38; conditions: read-out: Apparent Km for nicotinamide rescue of CD38 activity; CD38 preinhibited by 2
Protocol: 10 mL CD38 (1 μM) in K2PO4H was incubated with 2 (10 μM) for 30 minutes at room temperature and subsequently placed on ice. […] To a two syringe Applied Photophysics spectrophotometer in fluorescence mode was added inhibited enzyme to one syringe and NGD^+ solution to the other. Fluorescence was used to monitor cGDPR formation and the total fluorescence curves fit using the activity recovery equation. F(t)=vt+(b−v)(1−exp(−kt))/k+F0 where k is the observed rate constant, b is the initial rate, v is the final rate and F0 is the initial absorbance.
A stopped flow, two syringe fitted spectrophotometer was used to perform the experiments. The fluorescence of cGDPR was measured as a function of time to generate curves that contain an exponential and a linear phase prior to substrate exhaustion. These curves were fit to the equation Ft=vft+(vi−vf)(1−exp(−kt))/k+F0 as previously defined.

[10] = 10 mM potassium phosphate, pH 6.5, 25° C.
[11] = 100 μM NGD+ for 1, 40 μM NGD+ for 2, 50 mM potassium phosphate pH 7.2, read-out: Ki (competitive inhibition, from initial rates)
[12] = calculated from the kinetic parameters, read-out: Ki(total) = (koff/kon)*Ki, effective dissociation constant

SMILES: NC(=O)c1ccc[n+](C2CC(O)C(CO)O2)c1 (single isomer, unassigned) [α isomer of 1]
Inhibition of CD38 conversion of NGD+ to cGDPR (human CD38 [1]): did not inhibit

SMILES: Cc1cc(C(N)=O)c[n+](C2CC(O)C(CO)O2)c1 (single isomer, unassigned) [α isomer of 2]
Inhibition of CD38 conversion of NGD+ to cGDPR (human CD38 [1]): did not inhibit

SMILES: NC(=O)c1ccc[n+]([C@@H]2O[C@H](COP(=O)([O-])OP(=O)(O)OC[C@H]3O[C@@H](n4cnc5c(N)ncnc54)[C@H](O)[C@@H]3O)[C@@H](O)[C@H]2O)c1 [NAD^+, nicotinamide adenine dinucleotide]
Km (CD38 [2]): 15 µM

SMILES: NC(=O)c1ccc[n+]([C@@H]2O[C@H](COP(=O)([O-])OP(=O)(O)OC[C@H]3O[C@@H](n4cnc5c(=O)[nH]c(N)nc54)[C@H](O)[C@@H]3O)[C@@H](O)[C@H]2O)c1 [NGD^+, nicotiramide guanine dinucleotide]
Km (CD38 [2]): 2.5 µM

SMILES: NC(=O)c1ccc[n+]([C@@H]2O[C@H](COP(=O)(O)O)[C@@H](O)[C@H]2O)c1 [NMN^+]
Km (CD38 [2]): 150 µM

SMILES: [3H]C1[C@H]([n+]2cccc(C(N)=O)c2)O[C@H](CO)[C@H]1O (stereo partly shown) [[2-^3H]-1, [2′-^3H]Nicotinamide deoxyriboside]
Rate constant of radiochemical labeling of CD38 (kchem) (human CD38 [3]): 0.01 s⁻¹

SMILES: NC(=O)c1ccc[n+]([C@@H]2O[C@H](COP(=O)([O-])OP(=O)(O)OC[C@H]3O[C@@H](n4cnc5c(N)ncnc54)[C@H](O)[C@@H]3O)[C@@H](O)[C@H]2F)c1 [ara-F-NAD^+]
Ki (CD38 [4]): 169 nM

SMILES: NC(=O)c1ccc[n+]([C@@H]2O[C@H](COP(=O)(O)O)C(O)C2F)c1 (stereo partly shown) [ara-F-NMN^+]
Ki (CD38 [4]): 61 nM

SMILES: NC(=O)c1ccc[n+]([C@H]2C[C@H](O)[C@@H](CO)O2)c1 [inhibitor 1, β-nicotinamide-2′-deoxyriboside]
koff (rate constant of recovery from inhibition) (human CD38 [5]): ~2e-05 s⁻¹ | Rate constant for solution hydrolysis [6, 10]: 9.6e-05 s⁻¹ | Time to 50% depletion from solution by hydrolysis [6]: 2 h | Ki (human CD38 [1]; [11]): 1200 nM | Ki (human CD38 [1]; [12]): 4.5 nM | Rate constant of radiochemical labeling of CD38 (kchem) (human CD38 [3]): 0.01 s⁻¹

SMILES: Cc1cc(C(N)=O)c[n+]([C@H]2C[C@H](O)[C@@H](CO)O2)c1 [inhibitor 2, β-5-methyl-nicotinamide-2′-deoxyriboside]
koff (rate constant of recovery from inhibition) (human CD38 [5]): ~2e-05 s⁻¹ | Decrease in the rate of hydrolysis versus β-1′-nicotinamide-2′-deoxyribose (factor) [6, 10]: 6 | Rate constant for solution hydrolysis [6, 10]: 1.5e-05 s⁻¹ | Time to 50% depletion from solution by hydrolysis [6]: 12 h | Ki (human CD38 [1]; [11]): 4000 ± 500 nM | Ki (human CD38 [1]; [12]): 12.5 nM | kcat of base exchange (2 to 1) (human CD38 [7]; 75 μM 2, 1 μM CD38, nicotinamide 0-40 mM, 19° C.): 0.007 s⁻¹

Inhibition of CD38 conversion of NGD+ to cGDPR (human CD38 [1]): did not inhibit
SMILES: OC[C@H]1O[C@@H]([n+]2ccccc2)C[C@@H]1O [inhibitor 3, β-pyridyl-deoxyriboside]

Km (human CD38 [7]; read-out: Km of nicotinamide for steady state base exchange, 75 μM 2, 1 μM CD38, 19° C.): 920 µM | Km (human CD38 [9]): 2400 µM
SMILES: NC(=O)c1cccnc1 [nicotinamide]
Km (CD38 [8]): 17000 µM
